Format in all cases: cell-based
Test [1] deals with DU-145. Briefly: SRB anticancer activity screening, DU-145. Further details: Inhibition % for cancer cells DU-145: dose or concentration left out as unconfirmed. Conditions: DU-145 human prostate cancer, 48 hours. The protocol: (§1) A-549 (human lung carcinoma), HT-29 (human colon adenocarcinoma), DU145 (human prostate cancer), SK-MEL-2 (human malignant melanoma) and SK-OV-3 (human ovary malignant ascites) cells were used to evaluate the anticancer activity of the test compounds. All the cancer cells are all tumors cells derived from human and were acquired from the Korean Cell Line Bank. RP MI 1640 medium containing 10% fetal bovine serum was used as a culture medium. Cell culturing was performed in a constant-temperature, constant-humidity incubator (37° C., 5% CO2). Subculturing was performed once in 3 days, using 0.25% trypsin-1 mM EDTA.
(§2) The sulforhodamine B ([…]) assay, which was developed in 1989 by the National Cancer Institute to measure in vitro anticancer activity of drugs, was employed.
(§3) The subcultured cells were transferred using trypsin-EDTA solution to a 96-well microplate, at 5×10^3 cells per well, and then cultured in a CO2 incubator for 24 hours. After removing the medium and adding a solution of the test compound (100 μL) diluted 4-fold, the cells were cultured for 48 hours. […] After completely lysing the cells by adding 10 mM Trizma base (pH 10.3, 200 μL) to each well, absorbance was measured at 520 nm.
(§4) In order to evaluate the activity of the test compound for the cancer cells, GI50 was calculated according to Equation 1 or 2. […]
(§5) Then, IC50 value was calculated from the inhibitory concentration.

Test [2] concerns HT-29. Briefly: SRB anticancer activity screening, HT-29. Further details: Inhibition % for cancer cells HT-29: dose or concentration left out as unconfirmed. Conditions: HT-29 human colon adenocarcinoma, 48 hours. The protocol: as §1, §2, §3, §4, §5
Test [3] deals with HCT-116. As to the kind of experiment: SRB anticancer activity screening, HCT-116. Further details: Inhibition % for cancer cells HCT-116: dose or concentration left out as unconfirmed. Conditions: HCT-116 human colon cancer, 48 hours.
Test [4] concerns A375P. As to the kind of experiment: SRB anticancer activity screening, A375P. Further details: Inhibition % for cancer cells A375P: dose or concentration left out as unconfirmed. Conditions: A375P human melanoma cancer, 48 hours.

What is called IC50 is the midpoint of a concentration-inhibition curve.

Each structure is given as a SMILES string.

Take `Cc1ccc(N2CCc3c(N)nn(C(=O)CCN4CCN(c5ccc(Cl)cc5)CC4)c3C2=O)cc1` [Compound 9, 3-amino-1-[{4-(4-chlorophenyl)piperazin-1-yl}propanoyl]-6-N-(p-tolyl)-4,5,6,7-tetrahydro-1-H-pyrazolo[3,4-c]pyridin-7-one]: the “Inhibition % for cancer cells DU-145” value in test [1] was 80.02%. Also, the “Inhibition % for cancer cells HT-29” value in test [2] came to 90.54%. Further, the “Inhibition % for cancer cells HCT-116” value in test [3] amounted to 92.19%. For the same compound, the “Inhibition % for cancer cells A375P” value in test [4] stood at 95.03%.

Regarding `Cc1ccc(N2CCN(CCC(=O)n3nc(N)c4c3C(=O)N(Cc3ccccc3)CC4)CC2)c(C)c1` [Compound 17, 3-amino-1-[{4-(2,4-dimethylphenyl)piperazin-1-yl}propanoyl]-6-N-benzyl-4,5,6,7-tetrahydro-1H-pyrazolo[3,4-c]pyridin-7-one], the IC50 came to 0.4 ± 0.02 µM in test [1] (read-out: IC50 (μM) for cancer cells DU-145), 0.15 ± 0.01 µM in test [2] (read-out: IC50 (μM) for cancer cells HT-29), 0.34 ± 0.01 µM in test [3] (read-out: IC50 (μM) for cancer cells HCT-116) and 0.34 ± 0.03 µM in test [4] (read-out: IC50 (μM) for cancer cells A375P).

The values are drawn from US8383631B2, “1,6-disubstituted-3-amino-4,5,6,7-tetrahydro-1H-pyrazolo[3,4-C]pyridin-7-one compounds and preparation thereof” (Korea Institute of Science and Technology, priority 2010, dated 2013).
